Measured values from ChEMBL document CHEMBL1201862, “PubChem BioAssay data set” (2004).
Counter-ions that a name gives are not always drawn. Activity calls are given as the source filed them.

How the values were obtained:
Cytochrome P450 2D6 = Cytochrome P450 2D6 (Homo sapiens, UniProt P10635);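 also: CYP2D6 member of a cytochrome P450 panel assay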
[1] = target: T1, Mannose-6-phosphate isomerase (Homo sapiens, UniProt P34949); assay: human PMI inhibitors, high substrate, primary screen, biochemical, fluorescence intensity, high mannose 6-phosphate (AID 1220)
T1 sequence (P34949 whole entry): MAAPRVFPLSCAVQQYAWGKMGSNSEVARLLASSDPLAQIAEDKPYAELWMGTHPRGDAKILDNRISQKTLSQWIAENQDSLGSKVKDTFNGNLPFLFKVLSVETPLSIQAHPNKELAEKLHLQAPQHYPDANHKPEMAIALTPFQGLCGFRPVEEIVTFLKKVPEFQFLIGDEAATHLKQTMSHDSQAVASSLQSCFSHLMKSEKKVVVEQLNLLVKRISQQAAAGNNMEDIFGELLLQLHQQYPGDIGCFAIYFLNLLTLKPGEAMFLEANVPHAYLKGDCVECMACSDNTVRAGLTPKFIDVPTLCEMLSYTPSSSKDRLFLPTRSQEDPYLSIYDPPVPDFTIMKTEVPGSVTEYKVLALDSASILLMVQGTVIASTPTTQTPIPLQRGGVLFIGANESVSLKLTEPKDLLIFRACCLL

Cytochrome P450 2C9 = Cytochrome P450 2C9 (Homo sapiens, UniProt P11712)
Perilipin-1/ABHD5 = Perilipin-1/ABHD5 (Homo sapiens, UniProt O60240+Q8WTS1); assay: Luminescence-based biochemical high throughput dose response assay for inhibitors of the interaction of the lipase co-activator protein, abhydrolase domain containing 5 (ABHD5) with perilipin-1 (PLIN1) (2K validation set). [Related pubchem assays (depositor defined):AID493027, AID493057]
[2] = target: 1-acylglycerol-3-phosphate O-acyltransferase ABHD5/Perilipin-5 (Homo sapiens, UniProt Q00G26+Q8WTS1); assay: Luminescence-based biochemical high throughput dose response assay for inhibitors of the interaction of the lipase co-activator protein, abhydrolase domain containing 5 (ABHD5) with perilipin-5 (MLDP; PLIN5) (2K validation set). [Related pubchem assays (depositor defined):AID493035, AID493241]
[3] = inhibitors of SNCA 5'UTR-driven reporter translation, confirmation, H4 neuroglioma cells, luminescence (AID 1988); assay type: functional, cell-based
[4] = cytotoxicity toward NIH3T3 fibroblasts, dose response, counter-screen, cell-based, ATP luminescence, mouse fibroblasts (AID 2010); assay type: functional;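 also: cells exposed to compound for about 90 hours before reading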
[5] = SNU-C1 cell viability reduction, dose response, CellTiter-Glo luminescence (AID 1117323); assay type: functional, cell-based
[6] = inhibitors of firefly luciferase expression or activity, dose response, H4 neuroglioma cells, luminescence (AID 1990); assay type: functional, cell-based
Saccharomyces cerevisiae = assay: NALP1 inhibitor project selectivity study, Caspase-1/ASC signal blockade IC50 in S. cerevisiae (AID 488863); assay type: functional, organism-based
[7] = CellTiter-Glo luminescent dose response of DLD-1 viability loss (AID 1117352); assay type: functional
[8] = HCT116 cell viability decrease, GSK3B pretreatment – CellTiter-Glo, IC50, dose response (AID 1117339); assay type: functional; details: HCT-116
[9] = target: T2, Microphthalmia-associated transcription factor (Homo sapiens, UniProt O75030); assay: TRPM1 promoter luciferase signal decrease, dose response, MITF inhibitor project, cell-based, SK-MEL-5, cherry-picked, set 3 (AID 493073); assay type: functional
T2 sequence (O75030 whole entry): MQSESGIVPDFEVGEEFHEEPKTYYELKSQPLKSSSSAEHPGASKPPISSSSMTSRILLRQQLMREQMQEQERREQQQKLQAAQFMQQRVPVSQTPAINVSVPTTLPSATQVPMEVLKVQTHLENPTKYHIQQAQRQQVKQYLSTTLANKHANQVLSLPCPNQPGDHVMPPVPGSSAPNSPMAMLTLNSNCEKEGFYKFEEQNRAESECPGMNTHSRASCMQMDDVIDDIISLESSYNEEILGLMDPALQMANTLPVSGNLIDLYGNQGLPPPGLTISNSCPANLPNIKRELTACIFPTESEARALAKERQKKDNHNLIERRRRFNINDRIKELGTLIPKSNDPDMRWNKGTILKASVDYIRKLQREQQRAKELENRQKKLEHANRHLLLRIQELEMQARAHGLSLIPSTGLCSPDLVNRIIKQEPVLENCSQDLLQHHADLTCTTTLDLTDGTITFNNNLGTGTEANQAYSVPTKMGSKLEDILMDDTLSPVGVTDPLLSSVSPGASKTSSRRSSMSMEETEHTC

[10] = cytotoxicity toward HCT116 cells – cell-based, CellTiter-Glo luminescence, IC50, dose response (AID 1117332); assay type: functional; details: HCT-116
[11] = target: NACHT, LRR and PYD domains-containing protein 1 (Homo sapiens, UniProt Q9C000); assay: NALP1 inhibitors in yeast, dose response, luminescent (AID 488860); assay type: functional
[12] = target: T3, G-protein coupled receptor 55 (Homo sapiens, UniProt Q9Y2T6); assay: GPR55 antagonists blocking LPI-driven arrestin recruitment, primary screen, imaging, U2OS, beta-arrestin-GFP, LPI agonist (AID 2013); assay type: functional;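 also: antagonist potency measured as reduced agonist-driven arrestin aggregation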
[13] = Luminescence Cell-Based Dose Response HTS to Identify Inhibitors of 5'UTR Stem-Loop Driven Prion Protein mRNA Translation in H4 Neuroglioblastoma Cells. [Related pubchem assays: 1827 (Project Summary), 1813 (Primary HTS)]; assay type: functional
[14] = cytotoxicity in KRAS-transformed pancreatic duct cells, primary screen, cell-based, fluorescence, HTS (AID 431); assay type: functional; details: Homo sapiens;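 also: cell line used: HPDE-C7K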
[15] = inhibitors of intracellular T. cruzi replication, confirmation, NIH3T3 host cells, beta-gal luminescence (AID 2044); assay type: functional, cell-based;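 also: intracellular parasites grown in NIH/3T3 mouse fibroblasts as host cells; luminescent beta-galactosidase reporter signal from transgenic T. cruzi replicating inside host cells; inhibitors lower the luminescence signal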
[16] = target: T4, Ubiquitin-conjugating enzyme E2 N (Homo sapiens, UniProt P61088); assay type: functional;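 also: Dose-response confirmation in a TR-FRET assay detecting UBC13-driven polyubiquitin chain formation, inhibition measured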
T4 sequence (P61088 whole entry): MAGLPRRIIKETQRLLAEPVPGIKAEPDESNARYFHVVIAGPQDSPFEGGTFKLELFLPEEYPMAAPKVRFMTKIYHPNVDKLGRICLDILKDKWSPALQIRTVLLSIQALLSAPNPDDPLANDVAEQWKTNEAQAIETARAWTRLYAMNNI

[17] = cytotoxicity toward Colo320 cells – cell-based, CellTiter-Glo luminescence, IC50, dose response (AID 1117334); assay type: functional; details: COLO 320
[18] = cytotoxicity in HPDE-C7 cells, cell-based, fluorescence, HTS (AID 430); assay type: functional; details: Homo sapiens
[19] = Concentration-dependent survival of SW480 colon cancer line, luminescence detection with CellTiter-Glo, half-maximal inhibitory concentration (AID 1117338); assay type: functional
[20] = cytotoxicity toward HT-29 cells – cell-based, CellTiter-Glo luminescence, IC50, dose response (AID 1117330); assay type: functional
INS1 = assay: beta cell apoptosis inhibitors, cytokine rescue, dose response, luminescence, retest (AID 449756); assay type: functional, cell-based; details: Rattus norvegicus;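 also: cell death triggered by IL-1 beta plus TNF-alpha plus IFN-gamma mixture; protective hits raise ATP signal compared with cytokine alone wells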
[21] = RKO cell viability reduction, dose response, CellTiter-Glo luminescence (AID 1117322); assay type: functional
[22] = target: T3, G-protein coupled receptor 55; assay: SAR Analysis of Selective Antagonists of GPR55 using an Image-Based Assay - Set 3. [Related pubchem assays (depositor defined):AID2058, AID2079]; assay type: functional
[23] = target: G-protein coupled receptor 35 (Homo sapiens, UniProt Q9HC97); assay: SAR analysis of Antagonists of the GPR35 Receptor using an Image-Based Assay - Set 5. [Related pubchem assays (depositor defined):AID2058, AID2079]; assay type: functional
[24] = target: T3, G-protein coupled receptor 55; assay: GPR55 agonists via beta-arrestin recruitment, primary screen, imaging, U2OS cells, beta-arrestin-GFP redistribution (AID 1961); assay type: functional
[25] = target: Delta-type opioid receptor (Homo sapiens, UniProt P41143); assay: SAR Analysis of Antagonists of the DOR Receptor using an Image-Based Assay - Set 3. [Related pubchem assays (depositor defined):AID1777, AID1785]; assay type: functional;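 also: U2OS cells expressing DOR1 and beta-arrestin GFP stimulated with 100 nM SNC80; imaging of GFP-tagged beta-arrestin moving into spots after receptor activation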
Mu-type opioid receptor = Mu-type opioid receptor (Homo sapiens, UniProt P35372); assay: SAR Analysis of Antagonists of the MOR Receptor using an Image-Based Assay - Set 3. [Related pubchem assays (depositor defined):AID1777, AID1785, AID1786, AID1966, AID2133, AID2136, AID2284, AID2285, AID2420]; assay type: functional
[26] = target: T5, Kappa-type opioid receptor (Homo sapiens, UniProt P41145); assay: SAR analysis of Antagonists of the Kappa Opioid Receptor (KOR) using an Image-Based Assay - Set 4. [Related pubchem assays (depositor defined):AID1777, AID1785]; assay type: functional
[27] = target: T5, Kappa-type opioid receptor; assay: SAR analysis of small molecule antagonists of the kappa opioid receptor via a luminescent beta-arrestin assay - Set 3. [Related pubchem assays (depositor defined):AID1777, AID1778, AID1785, AID1786, AID1966, AID2133, AID2136, AID2285, AID2495]; assay type: functional
[28] = target: T6, Dual specificity protein phosphatase 3 (Homo sapiens, UniProt P51452); assay: SAR VHR1 Fluorescent Assay for In Vitro dose response studies Set 2. [Related pubchem assays (depositor defined):AID1654, AID1661, AID1878]; assay type: functional
[29] = target: T6, Dual specificity protein phosphatase 3; assay: SAR VHR1 Fluorescent Assay for In Vitro dose response studies. [Related pubchem assays (depositor defined):AID1654, AID1661, AID1878, AID1992, AID2004, AID2070, AID2085]; assay type: functional
[30] = target: T7, Dual specificity protein phosphatase 6 (Rattus norvegicus, UniProt Q64346); assay type: functional;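 also: confirmatory in vitro dose-response testing of MKP-3 inhibition; recombinant His-tagged MKP-3 made in E. coli BL21 with OMFP substrate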
T7 sequence (Q64346 whole entry): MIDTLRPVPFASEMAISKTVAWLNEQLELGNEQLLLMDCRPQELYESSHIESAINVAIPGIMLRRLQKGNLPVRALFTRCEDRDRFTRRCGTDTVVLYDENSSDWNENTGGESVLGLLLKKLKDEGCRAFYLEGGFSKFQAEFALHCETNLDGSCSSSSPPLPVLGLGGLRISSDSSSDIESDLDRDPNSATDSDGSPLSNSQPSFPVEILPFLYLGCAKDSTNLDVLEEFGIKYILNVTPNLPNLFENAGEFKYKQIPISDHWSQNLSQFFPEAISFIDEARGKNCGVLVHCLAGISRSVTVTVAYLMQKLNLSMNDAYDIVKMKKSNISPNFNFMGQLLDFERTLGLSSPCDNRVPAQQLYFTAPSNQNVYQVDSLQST

[31] = target: T8, Tyrosine-protein phosphatase non-receptor type 7 (Homo sapiens, UniProt P35236); assay: redox-dependent HePTP inhibition, mechanism study, biochemical, fluorescence (AID 2068); assay type: functional
T8 sequence (P35236 whole entry): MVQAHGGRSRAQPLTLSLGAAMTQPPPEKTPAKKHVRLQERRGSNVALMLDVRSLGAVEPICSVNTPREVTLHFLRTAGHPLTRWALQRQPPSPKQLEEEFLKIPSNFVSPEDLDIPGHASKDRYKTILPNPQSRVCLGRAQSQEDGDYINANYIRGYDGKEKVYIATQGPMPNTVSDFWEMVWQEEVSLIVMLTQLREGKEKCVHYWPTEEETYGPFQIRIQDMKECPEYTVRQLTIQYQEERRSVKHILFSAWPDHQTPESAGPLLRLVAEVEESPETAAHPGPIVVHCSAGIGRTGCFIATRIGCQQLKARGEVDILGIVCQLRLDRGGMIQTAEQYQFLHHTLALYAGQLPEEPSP

[32] = target: T6, Dual specificity protein phosphatase 3; assay: SAR VHR1 absorbance Assay for In Vitro dose response studies. [Related pubchem assays (depositor defined):AID1654, AID1661, AID1878, AID1992, AID2004]
[33] = cytotoxicity in NIH/3T3 mouse fibroblasts, dose response, cytotoxicity control, cell-based, mouse embryonic fibroblasts, dry powder, set 2 (AID 493247); assay type: functional; details: Fibroblast
Trypanosoma cruzi = assay: growth inhibition of intracellular Trypanosoma cruzi, dose response, cell-based, plate reader, dry powder, set 3 (AID 493197); assay type: functional

T3 sequence (Q9Y2T6 whole entry): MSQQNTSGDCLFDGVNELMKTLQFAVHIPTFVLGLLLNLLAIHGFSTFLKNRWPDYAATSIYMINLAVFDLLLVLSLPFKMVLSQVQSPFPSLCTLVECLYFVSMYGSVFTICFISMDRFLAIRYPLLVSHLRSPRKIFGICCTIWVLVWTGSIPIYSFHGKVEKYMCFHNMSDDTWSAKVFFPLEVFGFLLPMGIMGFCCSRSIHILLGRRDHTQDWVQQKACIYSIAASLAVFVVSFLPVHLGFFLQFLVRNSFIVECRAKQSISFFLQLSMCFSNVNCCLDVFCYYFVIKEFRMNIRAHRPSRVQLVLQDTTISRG
T6 sequence (P51452 whole entry): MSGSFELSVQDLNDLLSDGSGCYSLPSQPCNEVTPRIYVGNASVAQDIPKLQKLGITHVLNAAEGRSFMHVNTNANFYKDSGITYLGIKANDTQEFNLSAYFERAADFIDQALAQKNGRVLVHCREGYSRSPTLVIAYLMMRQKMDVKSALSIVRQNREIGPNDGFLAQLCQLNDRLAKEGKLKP
T5 sequence (P41145 whole entry): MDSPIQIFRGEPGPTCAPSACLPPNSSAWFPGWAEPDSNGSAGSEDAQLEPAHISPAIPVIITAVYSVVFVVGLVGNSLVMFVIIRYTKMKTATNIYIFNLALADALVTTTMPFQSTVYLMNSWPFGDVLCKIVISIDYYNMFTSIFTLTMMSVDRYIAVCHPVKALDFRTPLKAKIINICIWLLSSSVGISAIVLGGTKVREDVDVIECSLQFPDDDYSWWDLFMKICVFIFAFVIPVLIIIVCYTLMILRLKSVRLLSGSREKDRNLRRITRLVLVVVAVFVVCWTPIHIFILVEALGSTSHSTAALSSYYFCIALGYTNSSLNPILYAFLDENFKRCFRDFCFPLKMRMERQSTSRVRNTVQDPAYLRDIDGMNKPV
1-acylglycerol-3-phosphate O-acyltransferase ABHD5/Perilipin-5, sequence (Q00G26 whole entry, the tested form may be a part): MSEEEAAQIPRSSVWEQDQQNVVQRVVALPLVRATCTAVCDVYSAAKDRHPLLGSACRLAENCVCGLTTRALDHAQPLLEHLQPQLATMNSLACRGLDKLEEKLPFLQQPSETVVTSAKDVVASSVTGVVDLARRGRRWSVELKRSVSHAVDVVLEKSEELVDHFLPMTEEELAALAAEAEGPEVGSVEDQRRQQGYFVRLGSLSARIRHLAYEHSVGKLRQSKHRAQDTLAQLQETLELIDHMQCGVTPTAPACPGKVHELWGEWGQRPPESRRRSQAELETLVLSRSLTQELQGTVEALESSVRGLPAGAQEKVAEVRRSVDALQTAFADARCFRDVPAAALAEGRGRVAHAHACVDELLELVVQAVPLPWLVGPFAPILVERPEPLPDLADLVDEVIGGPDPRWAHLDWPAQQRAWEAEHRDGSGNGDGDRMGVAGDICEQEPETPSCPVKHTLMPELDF
1-acylglycerol-3-phosphate O-acyltransferase ABHD5/Perilipin-5, sequence (Q8WTS1 whole entry, the tested form may be a part): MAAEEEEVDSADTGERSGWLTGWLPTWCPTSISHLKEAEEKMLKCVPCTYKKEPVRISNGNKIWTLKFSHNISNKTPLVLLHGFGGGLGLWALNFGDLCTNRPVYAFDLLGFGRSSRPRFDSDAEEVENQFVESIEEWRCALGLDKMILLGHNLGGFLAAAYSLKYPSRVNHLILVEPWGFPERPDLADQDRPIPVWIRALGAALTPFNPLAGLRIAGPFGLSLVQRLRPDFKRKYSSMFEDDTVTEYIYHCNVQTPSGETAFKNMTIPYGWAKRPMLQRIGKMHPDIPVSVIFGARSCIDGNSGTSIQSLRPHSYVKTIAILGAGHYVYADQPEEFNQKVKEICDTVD
Delta-type opioid receptor, sequence (P41143 whole entry): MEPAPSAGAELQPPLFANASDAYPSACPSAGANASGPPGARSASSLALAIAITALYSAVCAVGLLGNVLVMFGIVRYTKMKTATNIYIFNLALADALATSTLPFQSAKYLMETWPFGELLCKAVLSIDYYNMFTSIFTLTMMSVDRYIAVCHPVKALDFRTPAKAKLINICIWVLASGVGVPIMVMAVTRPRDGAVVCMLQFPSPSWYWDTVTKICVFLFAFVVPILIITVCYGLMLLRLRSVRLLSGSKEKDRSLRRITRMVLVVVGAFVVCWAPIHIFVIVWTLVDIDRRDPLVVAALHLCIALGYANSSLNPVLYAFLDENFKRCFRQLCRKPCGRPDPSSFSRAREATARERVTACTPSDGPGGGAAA
Cytochrome P450 2D6, sequence (P10635 whole entry): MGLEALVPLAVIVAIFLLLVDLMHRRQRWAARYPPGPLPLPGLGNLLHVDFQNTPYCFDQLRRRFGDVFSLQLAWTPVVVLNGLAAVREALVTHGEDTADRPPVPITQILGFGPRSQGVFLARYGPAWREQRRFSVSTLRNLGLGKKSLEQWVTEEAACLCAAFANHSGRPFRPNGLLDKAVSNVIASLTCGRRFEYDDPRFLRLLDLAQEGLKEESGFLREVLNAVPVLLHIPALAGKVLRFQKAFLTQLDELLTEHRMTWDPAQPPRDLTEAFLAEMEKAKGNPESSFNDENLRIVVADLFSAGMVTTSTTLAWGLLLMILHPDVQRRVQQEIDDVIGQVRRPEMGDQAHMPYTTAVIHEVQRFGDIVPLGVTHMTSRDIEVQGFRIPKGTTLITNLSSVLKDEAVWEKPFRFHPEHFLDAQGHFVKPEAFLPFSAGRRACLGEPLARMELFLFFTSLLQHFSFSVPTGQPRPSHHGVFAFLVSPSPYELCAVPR
NACHT, LRR and PYD domains-containing protein 1, sequence (Q9C000 1-1212 limits assumed): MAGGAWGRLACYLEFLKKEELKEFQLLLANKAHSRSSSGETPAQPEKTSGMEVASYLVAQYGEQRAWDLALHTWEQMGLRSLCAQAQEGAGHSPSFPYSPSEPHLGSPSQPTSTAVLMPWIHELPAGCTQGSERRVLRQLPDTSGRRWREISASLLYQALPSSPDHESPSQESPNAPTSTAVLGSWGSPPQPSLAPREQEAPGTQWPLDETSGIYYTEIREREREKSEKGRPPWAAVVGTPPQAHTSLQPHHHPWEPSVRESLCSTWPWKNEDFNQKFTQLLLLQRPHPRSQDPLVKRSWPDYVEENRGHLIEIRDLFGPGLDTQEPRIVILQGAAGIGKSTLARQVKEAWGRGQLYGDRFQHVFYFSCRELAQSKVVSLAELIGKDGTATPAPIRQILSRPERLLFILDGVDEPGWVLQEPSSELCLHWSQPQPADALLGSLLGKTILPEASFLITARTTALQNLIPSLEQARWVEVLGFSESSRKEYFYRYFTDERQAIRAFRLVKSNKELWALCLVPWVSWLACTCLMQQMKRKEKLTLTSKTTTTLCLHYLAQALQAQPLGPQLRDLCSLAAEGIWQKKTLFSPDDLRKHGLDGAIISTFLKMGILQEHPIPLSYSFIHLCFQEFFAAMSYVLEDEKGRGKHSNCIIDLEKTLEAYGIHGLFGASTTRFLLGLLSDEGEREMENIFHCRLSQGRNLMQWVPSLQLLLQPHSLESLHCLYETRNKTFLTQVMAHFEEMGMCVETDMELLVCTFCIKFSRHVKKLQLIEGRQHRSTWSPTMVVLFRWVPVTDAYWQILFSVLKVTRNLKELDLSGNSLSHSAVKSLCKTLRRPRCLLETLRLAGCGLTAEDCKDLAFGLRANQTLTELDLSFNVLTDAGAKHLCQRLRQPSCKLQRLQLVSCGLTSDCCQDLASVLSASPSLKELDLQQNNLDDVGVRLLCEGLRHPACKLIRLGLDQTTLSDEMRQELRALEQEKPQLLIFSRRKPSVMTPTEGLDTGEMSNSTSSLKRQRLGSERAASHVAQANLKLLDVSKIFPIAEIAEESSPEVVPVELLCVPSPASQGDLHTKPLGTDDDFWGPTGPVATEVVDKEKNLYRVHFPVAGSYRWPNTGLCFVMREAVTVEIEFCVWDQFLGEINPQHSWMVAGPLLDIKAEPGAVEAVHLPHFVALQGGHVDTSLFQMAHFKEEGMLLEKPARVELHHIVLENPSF
NACHT, LRR and PYD domains-containing protein 1, sequence (Q9C000 1213-1473 limits assumed): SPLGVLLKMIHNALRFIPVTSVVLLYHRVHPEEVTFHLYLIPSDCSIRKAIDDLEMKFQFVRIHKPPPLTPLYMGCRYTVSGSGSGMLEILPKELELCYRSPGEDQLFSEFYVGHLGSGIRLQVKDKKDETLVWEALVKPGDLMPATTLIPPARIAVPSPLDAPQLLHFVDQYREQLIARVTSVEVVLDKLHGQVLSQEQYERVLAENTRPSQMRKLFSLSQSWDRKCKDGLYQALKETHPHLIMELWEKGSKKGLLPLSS
Perilipin-1/ABHD5, sequence (Q8WTS1 whole entry, the tested form may be a part): as the sequence (Q8WTS1 whole entry, the tested form may be a part) above
Perilipin-1/ABHD5, sequence (O60240 whole entry, the tested form may be a part): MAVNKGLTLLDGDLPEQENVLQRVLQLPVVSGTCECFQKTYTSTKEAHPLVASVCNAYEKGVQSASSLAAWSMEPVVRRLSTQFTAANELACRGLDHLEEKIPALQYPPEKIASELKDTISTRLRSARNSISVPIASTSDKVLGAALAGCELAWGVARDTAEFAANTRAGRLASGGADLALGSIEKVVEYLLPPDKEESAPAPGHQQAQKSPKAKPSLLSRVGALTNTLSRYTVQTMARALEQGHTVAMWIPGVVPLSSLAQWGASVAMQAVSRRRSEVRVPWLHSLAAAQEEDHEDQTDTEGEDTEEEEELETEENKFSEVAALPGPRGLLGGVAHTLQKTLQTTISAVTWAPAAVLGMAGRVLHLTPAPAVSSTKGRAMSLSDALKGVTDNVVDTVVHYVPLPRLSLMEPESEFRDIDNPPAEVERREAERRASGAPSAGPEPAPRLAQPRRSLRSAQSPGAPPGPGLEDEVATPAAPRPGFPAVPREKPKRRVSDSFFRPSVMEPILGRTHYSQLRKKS
G-protein coupled receptor 35, sequence (Q9HC97 whole entry): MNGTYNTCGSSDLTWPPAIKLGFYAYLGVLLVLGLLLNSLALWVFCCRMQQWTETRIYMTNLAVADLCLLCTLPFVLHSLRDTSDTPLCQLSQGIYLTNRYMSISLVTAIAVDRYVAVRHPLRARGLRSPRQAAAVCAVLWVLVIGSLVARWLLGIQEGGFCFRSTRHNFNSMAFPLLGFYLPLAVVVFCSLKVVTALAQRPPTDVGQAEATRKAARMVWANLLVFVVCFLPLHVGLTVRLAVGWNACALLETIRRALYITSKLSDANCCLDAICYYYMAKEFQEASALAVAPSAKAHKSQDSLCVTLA

SMILES: Nc1cc(-c2ccncc2)c[nH]c1=O [INAMRINONE]
- AC50 (Cytochrome P450 2D6): 12.6 µM (inconclusive)
- IC50 [1]: > 50 µM (not active)
- AC50 (Cytochrome P450 2C9): 12.6 µM (inconclusive)
- IC50 (Perilipin-1/ABHD5): > 79.5 µM (inactive)
- IC50 [2]: 78.8 µM (inactive)

SMILES: C1CCC(C(CC2CCCCN2)C2CCCCC2)CC1 (stereo not given) [PERHEXILINE MALEATE]
- EC50 [3]: 8.95 µM (active)
- EC50 [4]: 14.2 µM (active)
- IC50 [5]: 2.48 µM (active)
- EC50 [6]: > 120 µM (not active)
- IC50 (Saccharomyces cerevisiae): 15.9 µM (active)
- IC50 [7]: > 20 µM (inactive)
- IC50 [8]: 7.42 µM (inactive)
- AC50 [9]: 18.8 µM (active)
- IC50 [10]: > 20 µM (inactive)
- IC50 [11]: 12.9 µM (active)
- IC50 [12]: 3.19 µM (active)
- EC50 [13]: > 120 µM (not active)
- EC50 [14]: 10.8 µM (active)
- EC50 [15]: 3.13 µM (active)
- IC50 [16]: > 20 µM (inactive)
- IC50 [17]: 8.86 µM (inactive)
- EC50 [18]: 11.7 µM (active)
- IC50 [19]: 5.76 µM (inactive)
- IC50 [20]: 6.87 µM (inactive)
- AC50 (INS1): 6.42 µM (active)
- IC50 [21]: 7.85 µM (inactive)

SMILES: COC(=O)c1cnn(-c2ccccc2)c1/C=N/NC(N)=S
- IC50 [22]: > 32 µM (inactive)
- IC50 [23]: > 32 µM (inactive)

SMILES: COc1ccc(-c2cc(C(F)(F)F)n3nc(C(=O)NCc4ccco4)cc3n2)cc1
- EC50 [24]: > 32 µM (inactive)

SMILES: CCN(CCNC(=O)c1ccc(CNS(=O)(=O)c2ccccc2)cc1)Cc1ccccc1
- IC50 [25]: > 32 µM (inactive)
- IC50 (Mu-type opioid receptor): 2.03 µM (active)
- IC50 [26]: 12.1 µM (inactive)
- IC50 [27]: 4.86 µM (active)

SMILES: CNS(=O)(=O)c1cccc(C(=O)NC2CCSc3ccccc32)c1 (stereo not given)
- IC50 [28]: > 100 µM (inactive)
- IC50 [29]: > 100 µM (inactive)
- IC50 [30]: > 100 µM (inactive)
- IC50 [31]: > 100 µM (inactive)
- IC50 [32]: > 100 µM (inactive)

SMILES: CCCNC(=O)C1(C)CCCN(Cc2ccc(Oc3ccccc3)cc2)C1 (stereo not given)
- AC50 [33]: 22.9 µM (active)
- AC50 (Trypanosoma cruzi): 8.72 µM (active)
